The target in this assay is T1, Enoyl-[acyl-carrier-protein] reductase [NADPH] FabI (Staphylococcus aureus (strain MRSA252), UniProt Q6GI75).
T1 sequence (Q6GI75 whole entry): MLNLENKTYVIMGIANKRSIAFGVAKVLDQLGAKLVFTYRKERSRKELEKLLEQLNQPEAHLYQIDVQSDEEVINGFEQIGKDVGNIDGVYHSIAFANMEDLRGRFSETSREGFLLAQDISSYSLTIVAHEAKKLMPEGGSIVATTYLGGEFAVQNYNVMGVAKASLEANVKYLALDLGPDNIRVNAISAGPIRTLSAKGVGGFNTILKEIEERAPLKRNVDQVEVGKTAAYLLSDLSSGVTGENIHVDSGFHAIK
Briefly: Enzyme Inhibition Assay. As to conditions: pH 6.5; 30 °C. The protocol: Assays were carried out in half-area, 96-well microtiter plates. Compounds were evaluated in assay mixtures containing components specific for each enzyme. Inhibitors were varied over the range 0.01-10 uM. The consumption of NAD(P)H was monitored for 20 min at 30 °C by following the change in absorbance at 340 nm. IC50 values were estimated from a fit of the initial velocities to a standard equation.

Regarding `Cn1c2c(c3ccccc31)CCN(C(=O)c1ccc(O)cc1)C2` [4-({9-methyl-1H,2H,3H,4H,9H-pyrido[3,4-b]indol-2-yl}carbonyl)phenol], the IC50 (in general, the concentration that inhibits the measured activity by half) is 1.4 µM. `O=C(c1ccc(O)cc1)N1CCc2c(n(Cc3cccc(O)c3)c3ccccc23)C1` [4-({9-[(3-hydroxyphenyl)methyl]-1H,2H,3H,4H,9H-pyrido[3,4-b]indol-2-yl}carbonyl)phenol]: the IC50 worked out at 0.42 µM. The same measure for `CN1Cc2cc(C(=O)N3CCc4c([nH]c5ccccc45)C3)ccc2NC(CC(=O)O)C1=O` (stereo not drawn) [2-(4-methyl-3-oxo-7-{1H,2H,3H,4H,9H-pyrido[3,4-b]indol-2-ylcarbonyl}-2,3,4,5-tetrahydro-1H-1,4-benzodiazepin-2-yl)acetic acid]: 7.8 µM; for `O=C(c1ccccc1)N1CCc2c([nH]c3ccccc23)C1` [2-benzoyl-1H,2H,3H,4H,9H-pyrido[3,4-b]indole]: 2.7 µM; for `COC(=O)Cn1c2c(c3ccccc31)CCN(C(=O)c1ccc(O)cc1)C2` [methyl 2-{2-[(4-hydroxyphenyl)carbonyl]-1H,2H,3H,4H,9H-pyrido[3,4-b]indol-9-yl}acetate]: 9.8 µM. The same measure for `O=C(c1ccc(O)cc1)N1CCc2c([nH]c3ccccc23)C1` [4-{1H,2H,3H,4H,9H-pyrido[3,4-b]indol-2-ylcarbonyl}phenol]: 1.4 µM.

As for `COC(=O)CCCCn1c2c(c3ccccc31)CCN(C(=O)c1ccc(O)cc1)C2` [methyl 5-{2-[(4-hydroxyphenyl)carbonyl]-1H,2H,3H,4H,9H-pyrido[3,4-b]indol-9-yl}pentanoate], the midpoint of inhibition, the IC50, lay at 4.6 µM. In the case of `O=C(c1ccc(O)cc1)N1CCc2c(n(Cc3ccccc3)c3ccccc23)C1` [4-({9-benzyl-1H,2H,3H,4H,9H-pyrido[3,4-b]indol-2-yl}carbonyl)phenol] it was 1.3 µM.

(Values after BindingDB's records for doi:10.1016/s0960-894x(01)00405-x (Glaxosmithkline, 2001).)
